Legend:
freely-feeding rats = settings: central administration, 4 hour time period; cited from earlier work
rat = assay: Rat sleep/EEG studies; type: in vivo; settings: central administration at the onset of the normal sleep period; at the expense of paradoxical sleep and slow wave sleep 2
Description: Therefore antagonists of its receptors may be useful in the treatment of sleep disorders including insomnia.

In the case of “orexin-A: peptide ligand for the orexin-1 receptor, an agonist of the orexin receptors; sequence given in b81 (QPLPDCCRQKTCSCRLYELLHGAGNHAAGILTL; not fully specified; Orexin-A; UniProt O43612 34-66, looked up)”, the “increase in food intake over control rats receiving vehicle” value (freely-feeding rats) is listed as “approximately four-fold” and the arousal (rat) is listed as “dose-related increase in arousal”.
